Several values for one entry are separate records, joined by “and”; a condition that tells them apart may be missing. Equal values may be shown once. Read-outs that look alike come from different tables or passages of the source.
What was measured:
Bacillus subtilis spores = experiment: Bacillus subtilis spore carrier disinfection test; type: cell-based; settings: 30 minutes contact
Method: Preparation of carriers. In each of the following examples, the disinfection solutions were evaluated using spores of Bacillus subtilis. Spores were placed onto glass carriers formed by cutting microscope slides in half lengthways. Slides were placed in a culture tube that was capped and sterilized prior to inoculation with spores. A total of 0.1 mL of a spore suspension containing 10% bovine serum albumin by weight was placed onto a small area near one end of the slide. Approximately 20 μL (microliters) of spore suspension was added at a time for 5 times, allowing each 20μL amount to dry between additions. Heat drying was performed by briefly holding the slide over a flame. The heat-fixed culture was stored in the refrigerator until needed for up to, but no longer than, 5 days.
Disinfection of carriers. In the following examples, three vials were prepared, each containing 200 mL of the disinfectant composition to be evaluated. One spore carrier was placed into each vial. The spore carriers were held in the disinfection solutions for 30 minutes. After contacting was complete, the carriers were removed from the disinfection solutions using forceps and rinsed with sterile saline.
Spore recovery and enumeration. After rinsing, each of the slides was placed in a sterile tube containing 2 mL of saline. […] Invert plates were incubated at 37° C. and counted after 24 hours. […]

[1] = test system: Klebsiella pneumoniae (Gram negative); experiment: Biocidal test on dried cells on glass slides; type: cell-based
Method: (§1) 0.1 milliliters of a 3×10^6 cfu/mL solution of bacteria cells harvested from a mid-log phase culture were placed on a glass microscope slide. The solution was allowed to dry for 2 hours leaving only cells on the surface. The slides were treated by immersing them in 10 mL of either: (i) sterile water; (ii) 10% ethanol in water; (iii) 10% ozonated ethanol in water; or (iv) 1% ozonated ethanol in water for either 5 or 20 seconds. Immediately after treatment the slides were removed from solution and immersed in 3-mL of a sterile saline solution and ultrasonicated for 10 minutes to dislodge the cells from the slide. The recovered cells were diluted, plated, and incubated at 37° C. overnight and colonies were counted to determine the number of survivors per slide. Initial recovery was determined using the above procedure but the treatment step was omitted.

[2] = test system: Enterococcus faecium (Gram positive); experiment: Biocidal test on dried cells on glass slides; type: cell-based
Method: as §1

[3] = at 20° C.; Handbook of Chemistry and Physics; cited from earlier work
[4] = Stability of ozonated ethanol solutions over 72 hours; type: physicochemical; settings: ethanol (99 vol. %) ozonated 4 hours at 22° C.; 72-hour period
Method: The first step was the titration of hydrogen peroxide with ceric sulfate. A small amount of the peracetic acid solution (0.25 mL) was placed in 100 mL of ice-cold 1 N H2SO4 to which was also added three drops of ferroin indicator (Aldrich Chemical Company, Milwaukee, Wis.). The faint pink colored solution was then titrated with 0.1 M Ce(SO4)2 until the colorless endpoint was reached. Because cerium(IV) has a higher oxidation potential than hydrogen peroxide, hydrogen peroxide was oxidized to protons and molecular oxygen according the stoichiometry shown in the following reaction:
5 mL of 0.18 M KI was added to the solution and the mixture was stirred for 30 seconds. The solution was then placed in the dark for 30 minutes. After the 30-minute reaction time, the solution was yellowish brown and the color was proportional to the amount of peracetic acid originally present in the solution. The brown color was produced by oxidation of the colorless iodide anion (I^−) to the brown-colored iodine (I2) molecule by peracetic acid as shown in the following reaction: […]
Experiments were done to determine the stability of ozonated ethanol solutions over a 72-hour period. Ethanol (99 vol. %) was ozonated for 4 hours at 22° C. and the amount of AMP and peracetic acid was measured as a function of time over the next three days. […]

[5] = Dissolved ozone concentration by indigo colorimetric method; type: physicochemical; settings: for dissolved ozone concentration: ozonated 5 minutes, 10 wt % ozone gas
Method: Solutions containing varying amounts of acetic acid were saturated with ozone. Solutions were prepared containing 50%, 75%, 90%, 95%, and 99% by volume acetic acid in water. In separate experiments, 100 mL of the above solutions were placed in 250 mL round bottom flasks fitted with a ground glass top. The top contained two fittings that permitted gas flow in through one fitting and gas flow out through the other. A mixture of ozone and oxygen was delivered from Lynntech's Model 124 Electrochemical Ozone generator to the solution through a stainless steel gas diffusing stone. The flow rate was approximately 1,000 mL of gas per minute, and the concentration of ozone was 10% by weight. The solutions were ozonated for 5 minutes and the concentration of dissolved ozone was determined by the indigo calorimetric method. An additional solution of 100 mL of deionized water and a solution of 100 mL of glacial acetic acid were also ozonated.
The concentration of dissolved ozone was determined by the indigo colorimetric method. An indigo stock solution was prepared by adding 500 mL of deionized water and 1 mL of phosphoric acid to a 1 L volumetric flask. 770 mg of potassium indigo trisulfonate was added to the flask, and stirring was continued until the dye was completely dissolved. The flask was filled to the mark with deionized water. A working indigo solution was prepared by adding 20 mL of indigo stock solution, 10 g of sodium dihydrogen phosphate (NaH2PO4), and 7 mL of concentrated phosphoric acid to a 1 L volumetric flask. The flask was filled to the mark with deionized water. The concentration of ozone in solution was determined by adding an aliquot of ozonated solution (typically 30 μL) to 3 mL of working indigo solution in a 1 cm path-length quartz cuvette. The cuvette was capped with a piece of Parafilm® (American National Can Company, Chicago, Ill.) and inverted a few times to mix the solutions. As a blank, the same volume the equivalent non-ozonated solution was added to 3 mL of working indigo solution in a matched cuvette and mixed. […] The absorbance at 600 nm was measured to provide the difference in absorbance between the blank and the sample. […]
where ΔA is the difference in absorbance between the sample and the blank, b is the path-length of the cuvette, Vw is the volume of working indigo solution, Vs is the volume of sample, and f is 0.42. f is based on a sensitivity factor of 20,000/cm for the change in absorbance at 600 nm per mole of ozone added per liter. […]
200 mL of 81% acetic acid by volume (in DI water) water was ozonated in a glass flask. […] At the same time a liquid sample was withdrawn from the beaker and its ozone concentration measured by the method described above. […]

[6] = neutral aqueous solution, cited from earlier work
[7] = 5-second contact time, Log10 Start 5.3, Table 6
[8] = 20-second contact time, Log10 Start 4.8, Table 5
[9] = 20-second contact time, Log10 Start 6.3, Table 8
[10] = 5-second contact time, Log10 Start 4.9, Table 4
[11] = 20-second contact time, Log10 Start 5.4, Table 3
[12] = 20-second contact time, Log10 Start 7.4, Table 7

CC(=O)O [non-ozonated 81% acetic acid, acetic acid]
log reduction in viable spores, best achieved (Bacillus subtilis spores; Example 11): ≤ 2.87 log
sporicidal / disinfection activity in words (Bacillus subtilis spores; glass carriers, spores in 10% bovine serum albumin): relatively ineffective

CCO [10 vol. % Ethanol in Water (control), Ethanol]
Log10 Recovered [1, 7]: 3.3 Log10
Log10 Reduction [1, 7]: 2.0 Log10
Log10 Recovered [1, 8]: 4.3 Log10
Log10 Reduction [1, 8]: 0.5 Log10
Log10 Recovered [1, 9]: 6.4 Log10
Log10 Reduction [1, 9]: −0.1 Log10
Log10 Recovered [2, 10]: 4.3 Log10
Log10 Reduction [2, 10]: 0.6 Log10
Log10 Recovered [2, 11]: 5.2 Log10
Log10 Reduction [2, 11]: 0.2 Log10
Log10 Recovered [2, 12]: 4.5 Log10
Log10 Reduction [2, 12]: 2.9 Log10

CCCC(=O)O [butyric acid]
published ionization constant [3]: 4.81

CC(=O)OO [peracetic acid]
concentration in solution over time [4]: constant

acetaldehyde monoperacetate [AMP]
concentration in solution over time [4]: decreases considerably

O=[O+][O-] [ozone]
initial ozone concentration at the time the spore carriers were immersed ([5]; in 81% acetic acid ozonated 10 minutes): 125 ppm and 175 ppm
dissolved ozone concentration ([5]; in DI water): about 30 ppm
initial ozone concentration ([5]; in ozonated DI water, Example 11): ≤ 31 ppm
dissolved ozone concentration ([5]; in pure acetic acid): greater than 400 ppm
Ozone Concentration (solubility) ([6]; 0° C.): 35 (ppm)
Ozone Concentration (solubility) ([6]; 20° C.): 21 ppm
Ozone Concentration (solubility) ([6]; 40° C.): 4 ppm
Ozone Concentration (solubility) ([6]; 60° C.): 0 ppm
